Experimental data from patent US11571459B2, “Methods for treating cancer using PS-targeting antibodies with immuno-oncology agents” (ONCXERNA THERAPEUTICS, INC., priority 2017, dated 2023).

Assays:
[1] = Phase I dose escalation study of bavituximab monotherapy in refractory advanced solid tumors: PK, safety
Protocol: Samples were collected from patients in the 0.1 and 0.3 mg/kg dose cohorts before the study, on days 0, 1, 2, 4, 7, 10, 14, and every 7 days from days 21 to 70. Samples were collected from patients in the 1 and 3 mg/kg dose cohorts before the study, on days 0, 1, 2, 4, 7, 14, 21, 22, 23, 25, and every 7 days from days 28 to 56.

[2] = system: previously treated non-squamous NSCLC; conditions: in vivo
Protocol: The primary objective of this study was to compare the ORR (CR+PR) among the treatment arms. Secondary objectives included comparing PFS, DR, OS, safety and PK.
Additional blood draws were performed for these patients during Cycles 1 and 2 at specified time points.
Samples from the NSCLC Phase II trial of Example IX (PPHM 0902) were tested using the functional β2GPI assay of Example XII.

[3] = system: previously-treated Stage IIIb/IV non-squamous NSCLC; assay: Phase III trial of bavituximab plus docetaxel in NSCLC
From the text: This global, double-blind Phase III trial was initiated in 2012. Selection criteria were for patients with Stage IIIb/IV non-squamous NSCLC who progressed on platinum-doublet chemotherapy (should have progressed on appropriate targeted therapy if known EGFR or ALK mutation), with ECOG PS 0-1 and prior immunotherapy allowed (ECOG is the performance status scale defined by the Eastern Cooperative Oncology Group). […] The primary endpoint was overall survival (OS) and secondary endpoints included objective response rate (Independent Central Review, ICR), progression-free survival (ICR), safety, PK, Quality of Life (LCSS) and exploratory biomarkers, including immune correlates.
OS was analyzed by VeriStrat subgroups using Kaplan-Meier statistical methods.
A single cutoff method was first used to assess the patient β2GPI data.
The initial analyses described above prompted further, extensive analyses of the data in 592 evaluable patients. These analyses used a two cutoff method (Klein & Moeschberger, 2003).
Archival tissue obtained at the time of diagnosis was requested, but not required, in the Phase III trial of Example X. Formalin-fixed paraffin-embedded (FFPE) slides were stained with antibodies for a panel of lymphoid (or tumor) cell markers, as described in Feng et al., 2015: CD3+, CD8+, FoxP3+, PD-L1+, CD163+ and CK+ (cytokeratin, an epithelial carcinoma marker) using a mutliplex (6-plex) quantitative immunohistochemistry (IHC) assay (OPAL®, PerkinElmer, Waltham, Mass., USA) and using DAPI. The PD-L1 antibody used was the rabbit anti-PD-L1 antibody termed E1L3N® XP® (Cell Signaling Technology, (CST), Danvers, Mass., Catalogue #13684; Mahoney et al., 2015). Baseline PD-L1 expression was retrospectively scored on tumor cells (TC, i.e., CK+) and PD-L1 expressing tumor cells were classified according to their percentage within the total number of tumor cells using established assays and classifications (Fehrenbacher et al., 2016), as follows: TC3≥50%; TC2≥5% and ≤50%; TC1≥1% and <5%; and TC0<1%. Cox regression models for PD-L1 IHC subgroup populations were used for correlation with OS.
Kaplan-Meier statistical methods and Cox proportional hazard models were utilized to evaluate and contrast the correlation of peripheral (and intratumoral) IFNγ levels with OS based on a data cut from the Phase III trial (Example X) dated Feb.

[4] = system: previously untreated stage IV pancreatic cancer; assay: Phase II (PPHM 1002) gemcitabine with or without bavituximab; format: in vivo, human; conditions: for median overall survival: at study closure
Protocol: The primary objective was to compare the OS of patients among the treatment arms. Secondary objectives included comparing PFS, ORR, DR and safety.
Gemcitabine (1000 mg/m^2) was given on days 1, 8, and 15 of each 28-day cycle (4 weeks) until disease progression or unacceptable toxicities. A total of 70 patients were enrolled to the study. In general, the patient population had very extensive disease burden, which may have reduced the response in both arms.
The levels of pre-treatment functional β2GPI ranged from 82.5 to 343.2 μg/ml for all patients. For these 31 patients, the mean level of pre-treatment functional β2GPI (219.2 μg/ml) was consistent with the average reported in the literature.

[5] = system: previously untreated locally advanced or metastatic non-squamous NSCLC; assay: Phase II (PPHM 1001) paclitaxel/carboplatin with or without bavituximab; format: in vivo, human; conditions: functional β2GPI ≥200 μg/mL; bavituximab given with paclitaxel/carboplatin
[6] = system: PS; assay: ELISA binding to PS-coated plates; conditions: phospholipid-coated ELISA plates
Protocol: The 3G4 antibody was produced by immunizing mice with autologous, PS-positive endothelial cells, as reported in Ran et al., 2005. The 3G4 antibody was tested for binding to PS in a standard ELISA in the presence and absence of serum, and was initially characterized as being “serum-independent”, i.e., an antibody that binds to PS in the absence of serum.
In a follow-on study, the binding of the 2aG4 antibody to PS was tested in an ELISA in the presence of varying concentrations of human β2GPI.
These included binding to PS in ELISAs, FACS analyses using PS-positive cells and functional assays in the form of an NFAT surrogate ADCC bioassay (Larson et al., 2013).

[7] = target: T1, functional β2GPI (Homo sapiens, UniProt P02749); assay: Functional β2GPI assay (PS-coated plate, bavituximab-HRP); format: binding; conditions: for concentration read out in functional β2GPI assay: recombinant or plasma-derived β2GPI; for Conc. (ng/mL) read out in Functional β2GPI Assay: PS-coated plate, bavituximab-HRP, nicked vs intact β2GPI samples
T1 construct: Samples of β2GPI purified from human plasma and recombinant human β2GPI were both treated with plasmin; from tissue; host or cells: human plasma / serum
T1 sequence (P02749 20-345): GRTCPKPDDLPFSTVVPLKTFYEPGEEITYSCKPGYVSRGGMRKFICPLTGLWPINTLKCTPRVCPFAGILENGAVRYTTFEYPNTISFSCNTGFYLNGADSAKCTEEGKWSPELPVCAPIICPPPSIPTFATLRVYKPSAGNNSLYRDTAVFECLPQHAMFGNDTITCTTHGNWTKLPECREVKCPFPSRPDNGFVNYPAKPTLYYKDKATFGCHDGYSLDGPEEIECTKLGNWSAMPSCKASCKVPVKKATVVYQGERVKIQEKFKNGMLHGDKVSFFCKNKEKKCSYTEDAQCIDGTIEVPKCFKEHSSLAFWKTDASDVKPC
From the text: The following particular materials and equipment were used in the assay to generate the Results presented in this example under Sections B1 and B2. Materials: 96-well medium binding flat bottom plates (Greiner BioOne, cat #655001); 96-well non-binding round bottom plates (Costar, cat #3605); hexane (Sigma, cat #32293); PS antigen (Sigma, cat #P6641); ovalbumin (Sigma, cat #A5503); chromogenic substrate, tetramethylbenzidine (TMB), (KPL, cat #50-76-00); 2M H2SO4 (Fisher, Cat #SA818-4); plate covers (Fisher 015-027-11); adhesive plate sealer (VWR 232701); reagent reservoirs (VistaLab Cat #3054-1000). 1.5 mL microcentrifuge tubes, 50 mL conical tubes and 15 mL conical tubes were also utilized.
The Wash Buffer is IX phosphate-buffered saline (PBS) and the Blocking Buffer is 2% Ovalbumin in IX PBS.
The bavituximab antibody was conjugated to horseradish peroxidase (HRP) to prepare a bavituximab-HRP detection agent for use in the assay. The conjugation was performed using EZ-Link® Plus Activated Peroxidase (Thermo Scientific, Cat #31487) following the procedure for conjugating activated peroxidase to an antibody at pH 7.2 provided by the manufacturer. […] This was added to 1 mg of lyophilized EZ-Link Plus activated peroxidase to reconstitute. Immediately following reconstitution, 10 μL of 5M sodium cyanoborohydride solution was added to the reaction and incubated for 1 hour at room temperature. Once incubation was completed, 20 μL of quenching buffer was added and incubated for 15 minutes at room temperature. Conjugated bavituximab-HRP (1 mg/mL) was stored at 4° C. for up to 4 weeks.
The ELISA plates were coated with the PS antigen as follows: 5 μg/mL PS antigen was prepared and diluted into 6 mL of hexane in a fume hood with the blower off. 50 μL of PS solution was added to each well using a 12-channel pipette. The fume hood blower was turned back on and the hexane allowed to evaporate for 30-45 minutes, typically 30 minutes.
The PS-coated ELISA plates were blocked as follows: 100 mL per plate of the Blocking Buffer (2% Ovalbumin in IX PBS) was prepared. 200 μL of Blocking Buffer was added to each well using a 12-channel pipette.
The β2GPI standards for the positive control were obtained from Haematologic Technologies, Inc. (HTI; cat #B2G1-0001-C; 1.0 mg/ml) in a buffer of 0.2 M Glycine, 0.15 M NaCl, pH 7.4. […]

[8] = 70% of targeted OS events reached
[9] = about 85% of targeted OS events

Molecule: Bavi
- Bavi ([1]; Cmax at 3 mg/kg expressed as molar concentration): 0.389 µM
- Cmax ([1]; bavituximab 3 mg/kg, maximum concentration in blood (Example II; Gerber et al., 2011)): 56.4 µg/mL

Molecule: CC(=O)O[C@@]12CO[C@@H]1C[C@H](O)[C@@]1(C)C(=O)[C@H](O)C3=C(C)[C@@H](OC(=O)[C@H](O)[C@@H](NC(=O)OC(C)(C)C)c4ccccc4)C[C@@](O)([C@@H](OC(=O)c4ccccc4)[C@H]21)C3(C)C [docetaxel, reference compound]
- pharmacokinetic drug-drug interaction [2]: exhibited similar pharmacokinetic characteristics with or without the administration of bavituximab
- median OS ([3]; 12 months follow-up, about 85% of targeted OS events): 10.9 months
- mOS [3, 8]: 10.8 months
- median PFS [3, 8]: 3.9 months
- mOS ([3]; IFNγ high, no subsequent IO): 9.2 months
- mOS ([3]; IFNγ high, received subsequent IO): 13.5 months
- mOS ([3]; IFNγ low, no subsequent IO): 10.8 months
- mOS ([3]; IFNγ low, received subsequent IO): 12.1 months
- mOS ([3]; VS Good patients (VeriStrat)): 11.8 months
- mOS ([3]; VS Poor patients (VeriStrat)): 4.7 months
- Grade 3 or higher adverse events [3, 9]: 60%
- ORR [3, 9]: 11%
- PFS [3, 9]: 4.1 months
- mOS ([3]; functional β2GPI 200-240 μg/mL): 7.7 months
- mOS ([3]; functional β2GPI ≥200 μg/mL, 578 evaluable patients): 9.4 months
- mOS ([3]; functional β2GPI ≥200 μg/mL, 592 evaluable patients): 10.1 months
- mOS ([3]; functional β2GPI ≥200 μg/mL, with subsequent IO): 12.3 months
- mOS ([3]; functional β2GPI ≥200 μg/mL, without subsequent IO): 9.2 months
- mOS ([3]; higher PD-L1 expression (TC1/2/3, ≥1%)): 10.4 months
- HR, PD-L1 TC0 versus TC1/2/3 within arm ([3]; in vivo): 0.93
- mOS ([3]; negative PD-L1 expression (TC0, <1%)): 11.1 months
- mOS ([3]; patients receiving subsequent IO): 12.6 months
- mOS ([3]; patients who did not receive subsequent IO): 10.2 months
- mOS ([3]; pre-treatment serum IFNγ high (≥ median 0.093 μg/mL)): 10.6 months
- mOS ([3]; pre-treatment serum IFNγ low (< median 0.093 μg/mL)): 11.1 months
- mOS ([3]; β2GPI less than 200 μg/mL, with subsequent IO): 18.6 months
- mOS ([3]; β2GPI less than 200 μg/mL, without subsequent IO): 11.6 months

Molecule: Nc1ccn([C@@H]2O[C@H](CO)[C@@H](O)C2(F)F)c(=O)n1 [gemcitabine, reference compound]
- median overall survival [4]: 5.2 months

Molecule: paclitaxel/carboplatin [reference compound]
- mOS [5]: 13.2 months

Molecule: 2aG4: mouse IgG2a chimeric version of the 3G4 antibody
- binding to phospholipids in standard ELISA [6]: essentially the same affinity and binding profile as the 3G4 antibody

Molecule: bavituximab plus gemcitabine: treatment arm: gemcitabine with weekly 3 mg/kg bavituximab
- median overall survival [4]: 5.6 months
- TEAE anemia ([4]; in vivo): 35.3%
- TEAE fatigue, constipation and anorexia (each) ([4]; in vivo): 32.4%
- TEAE nausea ([4]; in vivo): 44.1%
- response rate and survival probability at 1 year compared with gemcitabine only ([4]; in vivo): numerically higher response rate and survival probability at 1 year

B1: β2GPI: plasmin-free (intact) β2GPI purified from human plasma or recombinant (protein)
chain: T1 sequence (P02749 20-345)
- concentration read out in functional β2GPI assay [7]: ~136 ng/mL

B2: plasmin-treated β2GPI: β2GPI treated with plasmin, majority nicked, does not bind PS (protein)
chain: T1 sequence (P02749 20-345)
- concentration read out in functional β2GPI assay [7]: 33 ng/mL

B3: Recombinant Plasmin-free β2GPI (protein, UniProt P02749 20-345, looked up)
Beta-2-glycoprotein 1: T1 sequence (P02749 20-345)
modifications: recombinant, plasmin-free
- Conc. (ng/mL) read out in Functional β2GPI Assay [7]: 136.42 ng/mL

B4: Human Plasmin-free β2GPI (protein, UniProt P02749 20-345, looked up)
Beta-2-glycoprotein 1: T1 sequence (P02749 20-345)
modifications: plasmin-free
- Conc. (ng/mL) read out in Functional β2GPI Assay [7]: 136.42 ng/mL
